Assay results as given in patent US20140005103A1, “SULFONAMIDE DERIVATIVES AND METHODS OF USE THEREOF FOR IMPROVING THE PHARMACOKINETICS OF A DRUG” (Merck, Sharp & Dohme Corp., priority 2012, published 2014).

How the values were obtained:
[1] = molecular target: T1, CYP2C19 (Homo sapiens, UniProt P33261); experiment: Cocktail CYP assay, mephenytoin 4'-hydroxylation; assay type: in vitro ADME; conditions: human liver microsomes, 30 μM mephenytoin; test concentrations up to 10 μM
T1 construct: 0.1 mg/mL protein human liver microsomes (BD Gentest); tissue BD Gentest; host or cells: human liver microsomes
T1 sequence (P33261 whole entry): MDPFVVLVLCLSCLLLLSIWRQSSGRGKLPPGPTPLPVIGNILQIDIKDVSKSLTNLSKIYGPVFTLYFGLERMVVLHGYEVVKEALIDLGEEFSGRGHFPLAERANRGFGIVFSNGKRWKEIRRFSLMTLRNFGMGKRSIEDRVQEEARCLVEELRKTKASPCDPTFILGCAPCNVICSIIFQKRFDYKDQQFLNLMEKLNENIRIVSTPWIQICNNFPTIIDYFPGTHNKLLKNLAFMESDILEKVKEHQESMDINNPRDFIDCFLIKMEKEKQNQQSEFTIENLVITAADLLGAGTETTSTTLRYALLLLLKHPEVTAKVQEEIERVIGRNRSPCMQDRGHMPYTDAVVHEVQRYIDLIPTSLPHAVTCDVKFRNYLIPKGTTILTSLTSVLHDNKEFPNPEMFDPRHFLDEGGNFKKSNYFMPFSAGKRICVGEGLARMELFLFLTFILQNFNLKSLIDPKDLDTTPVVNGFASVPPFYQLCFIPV
Protocol: Determination of IC50 in a Cocktail Assay for CYPs 1A2, 2C9, 2C19, 2D6 and 3A4
This assay was performed in a standard 96-well plate design. IC50 values were calculated from the percent inhibition observed for each test compound at 6 concentrations (for example, 0.0032, 0.016, 0.08, 0.4, 2 and 10 μM). The incubation substrate mix contains 10 μM phenacetin (1A2), 5 μM diclofenac (2C9), 30 μM mephenyloin (2C19), 5 μM dextromethorphan (2D6) and 2 μM midazolam (3A4), 0.1 mg/mL protein human liver microsomes (BD Gentest), 1 mM NAPDH, 3.3 mM MgCl2 and 100 mM potassium phosphate buffer (pH 7.4). The production of the metabolite of each probe substrate was determined after incubation for 10 min at 37° C. Quantitation of the metabolite peak area ratio against an internal standard (tolbutamide) was determined by LC/MS/MS analysis following acetonitrile treatment of the incubations.
Samples were analyzed in the MRM mode with a SCIEX API-4000 mass spectrometer (Applied Biosystems, Foster City, Calif.), with a Shimadzu LC-20 AD pump (Shimadzu corporation, Kyoto, JP) and a CTC PAL autosampler (Agilent Technologies, Switzerland). A Phenomenex, Luna, […], 100 A, 2.00×30 mm HPLC column was used for the separation. The mobile phases were: (A) 0.1% formic acid in water and (B) 0.1% formic acid in acetonitrile. The binary gradient was as follows.
The peak area ratio of the analyte to the internal standard was used to quantify the metabolite. The values of peak area ratios in the presence of test compound were compared to those of maximum or minimum controls and were expressed as % inhibition by interpolating between the maximum and minimum peak area ratios. Incubations with no inhibitor were defined as the maxima.
(§1) The following equation was used to calculate the % inhibition:
[1−[(X−Low control)/(High control−Low control)]]*100
For the IC50 calculation, SigmaPlot was used to plot the mean % inhibition versus the test compound concentrations and for non-linear regression analysis of the data. Depending on the range of data points defining the inhibition curve, the data may have been fit to the 4-parameter logistic equation.

[2] = molecular target: T2, human CYP11B1 (Homo sapiens, UniProt P15538); experiment: IC50 vs CYP11B1 by cortisol synthesis in V79 cells; assay type: cell-based; conditions: V79 cells expressing human CYP11B1, 1500 nM RSS, cortisol HTRF; test concentrations 0.5-10000 nM
T2 construct: expressed in transfected cells
T2 sequence (P15538 25-503): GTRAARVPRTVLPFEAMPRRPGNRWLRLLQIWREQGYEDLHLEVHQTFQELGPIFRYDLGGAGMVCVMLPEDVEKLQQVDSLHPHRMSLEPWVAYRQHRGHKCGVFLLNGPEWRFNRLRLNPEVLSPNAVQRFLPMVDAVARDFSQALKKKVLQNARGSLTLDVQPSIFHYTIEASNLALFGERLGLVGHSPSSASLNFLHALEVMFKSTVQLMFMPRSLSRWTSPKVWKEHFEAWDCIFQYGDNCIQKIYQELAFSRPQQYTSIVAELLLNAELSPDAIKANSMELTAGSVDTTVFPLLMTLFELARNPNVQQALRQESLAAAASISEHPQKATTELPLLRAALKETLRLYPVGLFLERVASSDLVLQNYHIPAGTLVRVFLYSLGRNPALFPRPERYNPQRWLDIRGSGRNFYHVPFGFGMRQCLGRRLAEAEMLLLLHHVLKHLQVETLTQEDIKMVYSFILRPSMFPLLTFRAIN
Protocol: Determination of IC50 vs CYP11B1/CYP11B2 by Measurement of Cortisol/Aldosterone Synthesis
This assay was performed in a standard 384-well plate design using cultured V79 cells stably expressing human CYP11B1 or human CYP11B2. Test compounds at 10 concentrations (for example, 10000, 3333.3, 1111.1, 370.4, 123.5, 41.2, 13.7, 4.6, 1.5 and 0.5 nM) were added in 384-well plate after the cell-seeding procedure. The incubation substrate contains 1500 nM RSS for CYP11B1 assay/750 nM DOC for CYP11B2 assay. The
Cortisol/Aldosterone production of cell culture supernatant was determined by Cortisol/Aldosterone HTRF kit after for about 15 hours incubation at RT (protect from light). IC50 values were calculated from the percent inhibition observed for each test compound at 10 concentrations.
The assay plate was read using Envision (Perkin Elmer, Waltham, Mass.) at 665 nm and 590 nm (using Filter Barcode of 217#, 205#; Mirror Barcode of 446#).
Data are analyzed using Assay Data Analyzer. All ratio data (665 nm/590 nm) are back calculated according to the standard curve, resulting in Cortisol/Aldosterone concentrations. IC50 values are reported as the Inflection Point (IP) of a four parameter fit of the titration data.
as §1
% Activity=100×{1−(Sample_back calculated Cortisol/Aldosterone concentration−LC_back calculated Cortisol/Aldosterone concentration)/(HC_back calculated Cortisol/Aldosterone concentration−LC_back calculated Cortisol/Aldosterone concentration)}

Row | SMILES | IC50 [1] | IC50 [2]
1 | C[C@H](c1ccc(F)cc1)n1cnnc1CN1CCN(S(=O)(=O)c2cnc(N3CCN4C[C@H](O)C[C@H]4C3)s2)CC1 [Compound 42] | > 10 µM | 7.8 µM
2 | C[C@H](c1ccc(F)cc1)n1cncc1C1COCC2CN(S(=O)(=O)c3cnc(Nc4ccccn4)s3)CCN21 (stereo partly drawn) [Compound 40] | 3.05 µM | 1.15 µM
3 | C[C@H](c1ccc(F)cc1)n1cncc1CN1CCN(S(=O)(=O)c2cnc(N3CCNCC3)s2)CC1 [Compound 1] | 2.53 µM | 1.77 µM
4 | CC(c1cncn1[C@H](C)c1ccc(F)cc1)N1CCN(S(=O)(=O)c2cnc(N3CCN4C[C@H](O)C[C@H]4C3)s2)CC1 (stereo partly drawn) [Compound 37] | > 10 µM | 3.81 µM
5 | C[C@H](c1ccc(F)cc1)n1cncc1CN1CCN(S(=O)(=O)c2cnc(N3CCN4C[C@H](O)C[C@H]4C3=O)s2)CC1 [Compound 18] | 2.16 µM | 2.59 µM
6 | C[C@H](c1ccc(F)cc1)n1cncc1CN1CCN(S(=O)(=O)c2cncc(N3CCNCC3)c2)CC1 [Compound 29] | > 10 µM | 1.44 µM
7 | CC1CN(c2ncc(S(=O)(=O)N3CCN(Cc4cncn4[C@H](C)c4ccc(F)cc4)CC3)s2)C[C@@H]2C[C@@H](O)CN12 (stereo partly drawn) [Compound 23] | > 10 µM | 1.22 µM
8 | C[C@H](c1ccc(F)cc1)n1cncc1CN1CCN(S(=O)(=O)c2cnc(N3CCC4(CC3)CNC(=O)N4)s2)CC1 [Compound 3] | > 10 µM | > 10 µM
9 | C[C@H](c1ccc(F)cc1)n1cncc1CN1CCN(S(=O)(=O)c2cnc(N3CCN4C(=O)OC[C@H]4C3)s2)CC1 [Compound 26] | 7.21 µM | 3.04 µM
10 | C[C@H](c1ccc(F)cc1)n1cncc1CN1CCN(S(=O)(=O)c2cnc(N3CCC(S(C)(=O)=O)C3)s2)CC1 (stereo partly drawn) [Compound 8] | > 10 µM | > 10 µM
11 | C[C@H](c1ccc(F)cc1)n1cncc1CN1CCN(S(=O)(=O)c2cnc(N3CC(=O)N4C[C@H](O)C[C@H]4C3)s2)CC1 [Compound 16] | 8.04 µM | > 10 µM
12 | C[C@H](c1ccc(F)cc1)n1cncc1CN1CCN(S(=O)(=O)c2cnc(N3CCN4C[C@H](O)CC4(C)C3)s2)CC1 (stereo partly drawn) [Compound 24] | > 10 µM | 4.27 µM
13 | C[C@H](c1ccc(F)cc1)n1cncc1CN1CCN(S(=O)(=O)c2cnc(N3CCN4C[C@H](O)C[C@@H]4C3)s2)CC1 [Compound 6] | > 10 µM | 1.56 µM
14 | C[C@H](c1ccc(F)cc1)n1cncc1CN1CCN(S(=O)(=O)c2cnc(N3CCN4CCC(O)[C@H]4C3)s2)CC1 (stereo partly drawn) [Compound 27] | 6.48 µM | 1.57 µM
15 | C[C@H](c1ccc(C#N)cc1)n1cncc1CN1CCN(S(=O)(=O)c2cnc(Nc3ccc(C(F)(F)F)cn3)s2)CC1 [Compound 4] | 0.721 µM | 0.225 µM
16 | C[C@H](c1ccc(F)cc1)n1cncc1CN1CCN(S(=O)(=O)c2cnc(N3CCN4C[C@H](O)C[C@H]4C3)s2)CC1 [Compound 5] | 3.85 µM | 2 µM
17 | CC1CN2C[C@H](O)C[C@H]2CN1c1ncc(S(=O)(=O)N2CCN(Cc3cncn3[C@H](C)c3ccc(F)cc3)CC2)s1 (single isomer, unassigned) [Compound 22] | 2.29 µM | 1.16 µM

Row | SMILES | IC50 [1] | IC50 [2]
18 | C[C@H](c1ccc(F)cc1)n1cncc1CN1CCN(S(=O)(=O)c2cnc(N3CCC(N)(CO)CC3)s2)CC1 [Compound 25] | > 10 µM | 6.93 µM
19 | C[C@H](c1ccc(F)cc1)n1cncc1CN1CCN(S(=O)(=O)c2cnc(NCC(F)CN)s2)CC1 (stereo partly drawn) [Compound 17] | 2.25 µM | > 10 µM
20 | Cc1ccc(C2(n3cncc3CN3CCN(S(=O)(=O)c4cnc(N5CCN(C)CC5)s4)CC3)CC2)nc1 [Compound 31] | > 10 µM | > 10 µM
21 | C[C@H](c1ccc(F)cc1)n1cncc1CN1CCN(S(=O)(=O)c2cnc(N3CCN(C4CCN(C)CC4)CC3)s2)CC1 [Compound 9] | > 10 µM | 2.04 µM
22 | C[C@H](c1ccc(F)cc1)n1cncc1CN1CCN(S(=O)(=O)c2cnc(N3CCN(C)CC3)s2)CC1 [Compound 2] | 1.83 µM | 0.215 µM
23 | CN1CCN(c2ncc(S(=O)(=O)N3CCN(Cc4cncn4CCOc4ccc(F)cn4)CC3)s2)CC1 [Compound 33] | 7.51 µM | 4.75 µM
24 | CN1CCN(c2ncc(S(=O)(=O)N3CCN(Cc4cncn4CCOc4ccc(Cl)cc4)CC3)s2)CC1 [Compound 32] | 3.44 µM | 1.58 µM
25 | C[C@H](c1ccc(F)cc1)n1cncc1CN1CCN(S(=O)(=O)c2cnc(N3CCN4C[C@H](O)CC[C@H]4C3)s2)CC1 [Compound 19] | 7.95 µM | 1.85 µM
26 | C[C@H](c1ccc(F)cc1)n1cncc1C1C(=O)OCC2CN(S(=O)(=O)c3cnc(Nc4ccc(C(F)(F)F)cn4)s3)CCN21 (stereo partly drawn) [Compound 39] | 2.65 µM | 2.48 µM
27 | C[C@H](c1ccc(F)cc1)n1cncc1CN1CCN(S(=O)(=O)c2cnc(N3CC[C@@H](N)[C@H](F)C3)s2)CC1 [Compound 11] | 8.02 µM | 1.1 µM
28 | C[C@H](c1ccc(F)cc1)n1cncc1CN1CCN(S(=O)(=O)c2cnc(N3CC[C@@H]4NCCO[C@H]4C3)s2)CC1 [Compound 15] | > 10 µM | 1.71 µM
29 | C[C@H](c1ccc(F)cc1)n1cncc1CN1CCN(S(=O)(=O)c2cnc(N3CCNCC3)cn2)CC1 [Compound 30] | > 10 µM | 4.51 µM
30 | C[C@H](c1ccc(F)cc1)n1cncc1CN1CCN(S(=O)(=O)c2cnc(N3CC[C@@H](N4CCOCC4)[C@H](F)C3)s2)CC1 [Compound 20] | 4.11 µM | 1.02 µM
31 | C[C@H](c1ccc(F)cc1)n1cncc1CN1CCN(S(=O)(=O)c2cnc(N3CCN4C[C@@H](CN)C[C@H]4C3)s2)CC1 [Compound 10] | > 10 µM | 1.91 µM
32 | C[C@H](c1ccc(F)cc1)n1cncc1CN1CCN(S(=O)(=O)c2cnc(N3C[C@@H]4C[C@@H](O)CN4C[C@@H]3C)s2)CC1 [Compound 21] | ≥ 10 µM | 3.92 µM
33 | C[C@H](c1ccc(F)cc1)n1cncc1CN1CCN(S(=O)(=O)c2ccc(N3CCNCC3)cn2)CC1 [Compound 28] | 3.68 µM | 3.55 µM
